# Several values for one entry are separate records, joined by “and”; a condition that tells them apart may be missing. Identical values can stand only once.
# Assays:
# Format in all cases: biochemical
# CK-MB [1] = experiment: CK-MB assay, AK-Ab1 particle + HRP-Ab2 conjugate; conditions: for RLU: replicates
# Experimental: This example describes a method of detecting CK-MB (Creatine Kinase Myocardial Band) using an AK-Abl particle prepared as set forth in Example 3 and a HRP-Ab2 conjugate prepared as set forth in Example 4 where Ab2 represents an antibody to CK-MB. This method employed ascorbic acid to decrease background signal.
# HRP-Ab2 conjugate suspensions were prepared at 1.0 μg/mL and contained either 0 or 1 mM ascorbic acid. Samples consisted of human serum samples with the indicated mounts of CK-MB added or no CK-MB as a control. The test procedure consisted of adding 15 μL of 1.0 μg/mL HRP-Ab2 conjugate and 35 μL of MES buffer containing 1 mg/mL BSA and 1 mg/mL MIgG, pH 5.9 to the reaction vessel. Next, 25 μL of patient serum sample was added, followed by 25 μL of 1.0 mg/mL AK-Abl conjugate suspension thereby obtaining 100 μL of total volume in the reaction vessel. After 15.2 minutes, 100 μL of trigger solution A was added to the reaction vessel and the light intensity was recorded on the modified DxI instrument. Chemiluminescence intensity is expressed in Relative Light Units (RLU).
# CK-MB [2] = experiment: Effect of trigger pH: CK-MB on LodeStars with ascorbate
# Experimental: B. In order to determine the effect of trigger solution pH on a variety of test assay systems, a series of experiments were conducted varying trigger pH. […] In the tables, two pH values are listed for each data set. The first is the pH of the buffer sample added to the reaction mixture. The second is the resulting pH of the final reaction mix.
# HRP = biological target: T1, HRP (Armoracia rusticana, UniProt P00433); experiment: HRP model system on silica particles, with and without ascorbic acid; conditions: 150 μM Ascorbate; for RLU: replicates
# T1 construct: purchased Roche Diagnostics, Indianapolis, Ind., USA
# T1 sequence (P00433 31-338 limits assumed): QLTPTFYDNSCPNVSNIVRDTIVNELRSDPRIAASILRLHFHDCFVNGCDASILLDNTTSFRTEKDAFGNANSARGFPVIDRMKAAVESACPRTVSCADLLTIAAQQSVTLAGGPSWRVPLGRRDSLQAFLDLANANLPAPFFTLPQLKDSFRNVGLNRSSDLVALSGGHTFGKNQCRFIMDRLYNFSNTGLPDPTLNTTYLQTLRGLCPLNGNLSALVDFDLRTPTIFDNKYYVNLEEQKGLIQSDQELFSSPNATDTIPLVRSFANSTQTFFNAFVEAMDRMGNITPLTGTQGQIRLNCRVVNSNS
# Experimental: In order to further investigate the effect of specific solid phase particles on the assays described herein, a comparison of a variety of particle types was conducted, including silica, polymethylmethacrylate (PMMA). Carboxyl modified PMMA particles (PolyAn GmbH, Berlin) were labeled with AK and biotin as described in Example 3, followed by coating with streptavidin. Silica particles were reacted with 3-aminopropylsiloxane in 1 mM acetic acid to provide an amine reactive group. The amine functional groups were reacted with AK-3 and biotin-LC-sulfoNHS, followed by coating with streptavidin.
# Signal generation with Silica and PMMA particles. Assays using the HRP model system, as generally described in Example 1, were conducted on silica particles and PMMA particles, with and without ascorbic acid in the reaction mixture. The assays were run on a modified DxI instrument as described above. The assay conditions consisted of combining 45 μL BUFFER II (with or without ascorbic acid), 25 μL of particle suspension, and 15 μL of sample and incubating for 30 min. Then 100 μL of trigger solution A was added to the reaction vessel and the light intensity was recorded.
# [3] = With Ascorbate, S1, CK-MB 600 pg/mL
# [4] = With Ascorbate, S2, CK-MB 3200 pg/mL
# [5] = With Ascorbate, S3, CK-MB 9150 pg/mL
# [6] = With Ascorbate, S4, CK-MB 26300 pg/mL
# [7] = With Ascorbate, S5, CK-MB 94600 pg/mL
# [8] = With Ascorbate, S6, CK-MB 268750 pg/mL
# [9] = With Ascorbate, S7, CK-MB 1500000 pg/mL
# [10] = Control (7.0), S1, CK-MB 3200 ng/ml
# [11] = Control (7.0), S2, CK-MB 9150 ng/ml
# [12] = Control (7.0), S3, CK-MB 26300 ng/ml
# [13] = Control (7.0), S4, CK-MB 94600 ng/ml
# [14] = Control (7.0), S5, CK-MB 268750 ng/ml
# [15] = pH 6.0 (5.9), S1, CK-MB 3200 ng/ml
# [16] = pH 6.0 (5.9), S2, CK-MB 9150 ng/ml
# [17] = pH 6.0 (5.9), S3, CK-MB 26300 ng/ml
# [18] = pH 6.0 (5.9), S4, CK-MB 94600 ng/ml
# [19] = pH 6.0 (5.9), S5, CK-MB 268750 ng/ml
# [20] = pH 7.0 (6.8), S1, CK-MB 3200 ng/ml
# [21] = pH 7.0 (6.8), S2, CK-MB 9150 ng/ml
# [22] = pH 7.0 (6.8), S3, CK-MB 26300 ng/ml
# [23] = pH 7.0 (6.8), S4, CK-MB 94600 ng/ml
# [24] = pH 7.0 (6.8), S5, CK-MB 268750 ng/ml
# [25] = pH 8.0 (7.8), S1, CK-MB 3200 ng/ml
# [26] = pH 8.0 (7.8), S2, CK-MB 9150 ng/ml
# [27] = pH 8.0 (7.8), S3, CK-MB 26300 ng/ml
# [28] = pH 8.0 (7.8), S4, CK-MB 94600 ng/ml
# [29] = pH 8.0 (7.8), S5, CK-MB 268750 ng/ml
# [30] = pH 9.0 (8.6), S1, CK-MB 3200 ng/ml
# [31] = pH 9.0 (8.6), S2, CK-MB 9150 ng/ml
# [32] = pH 9.0 (8.6), S3, CK-MB 26300 ng/ml
# [33] = pH 9.0 (8.6), S4, CK-MB 94600 ng/ml
# [34] = pH 9.0 (8.6), S5, CK-MB 268750 ng/ml
compound,measurement,setting,value
"O=C1O[C@H]([C@@H](O)CO)C(O)=C1O [Ascorbic Acid, Ascorbic acid]",RLU,"CK-MB [1]; With Ascorbate (1 mM in HRP-Ab2 conjugate), Buffer, CK-MB 0 pg/mL",1616 RLU and 1536 RLU and 1592 RLU
same,Mean RLU,"CK-MB [1]; With Ascorbate, Buffer, CK-MB 0 pg/mL",1581 RLU
same,Mean RLU,CK-MB [1]; [3],883 RLU
same,RLU,CK-MB [1]; [3],948 RLU and 852 RLU and 848 RLU
same,Mean RLU,CK-MB [1]; [4],4051 RLU
same,S/S1,CK-MB [1]; [4],4.59
same,RLU,CK-MB [1]; [4],4080 RLU and 3928 RLU and 4144 RLU
same,Mean RLU,CK-MB [1]; [5],13295 RLU
same,S/S1,CK-MB [1]; [5],15.06
same,RLU,CK-MB [1]; [5],12756 RLU and 13108 RLU and 14020 RLU
same,Mean RLU,CK-MB [1]; [6],40407 RLU
same,S/S1,CK-MB [1]; [6],45.78
same,RLU,CK-MB [1]; [6],41384 RLU and 39448 RLU and 40388 RLU
same,Mean RLU,CK-MB [1]; [7],232489 RLU
same,S/S1,CK-MB [1]; [7],263.39
same,RLU,CK-MB [1]; [7],222832 RLU and 249468 RLU and 225168 RLU
same,Mean RLU,CK-MB [1]; [8],1195177 RLU
same,S/S1,CK-MB [1]; [8],1354.05
same,RLU,CK-MB [1]; [8],1187736 RLU and 1121256 RLU and 1276540 RLU
same,Mean RLU,CK-MB [1]; [9],3324829 RLU
same,S/S1,CK-MB [1]; [9],3766.80
same,RLU,CK-MB [1]; [9],3266772 RLU and 3290024 RLU and 3417692 RLU
same,Mean RLU,"CK-MB [2]; Control (7.0), S0, CK-MB 600 ng/ml","1,837 RLU"
same,Mean RLU,CK-MB [2]; [10],"7,380 RLU"
same,S/S0,CK-MB [2]; [10],4.0
same,Mean RLU,CK-MB [2]; [11],"22,931 RLU"
same,S/S0,CK-MB [2]; [11],12.5
same,Mean RLU,CK-MB [2]; [12],"75,857 RLU"
same,S/S0,CK-MB [2]; [12],41.3
same,Mean RLU,CK-MB [2]; [13],"427,483 RLU"
same,S/S0,CK-MB [2]; [13],232.7
same,Mean RLU,CK-MB [2]; [14],"2,055,748 RLU"
same,S/S0,CK-MB [2]; [14],1118.9
same,Mean RLU,"CK-MB [2]; pH 6.0 (5.9), S0, CK-MB 600 ng/ml",693 RLU
same,Mean RLU,CK-MB [2]; [15],"2,849 RLU"
same,S/S0,CK-MB [2]; [15],4.1
same,Mean RLU,CK-MB [2]; [16],"6,812 RLU"
same,S/S0,CK-MB [2]; [16],9.8
same,Mean RLU,CK-MB [2]; [17],"28,129 RLU"
same,S/S0,CK-MB [2]; [17],40.6
same,Mean RLU,CK-MB [2]; [18],"119,144 RLU"
same,S/S0,CK-MB [2]; [18],171.8
same,Mean RLU,CK-MB [2]; [19],"754,177 RLU"
same,S/S0,CK-MB [2]; [19],1087.8
same,Mean RLU,"CK-MB [2]; pH 7.0 (6.8), S0, CK-MB 600 ng/ml","1,788 RLU"
same,Mean RLU,CK-MB [2]; [20],"8,409 RLU"
same,S/S0,CK-MB [2]; [20],4.7
same,Mean RLU,CK-MB [2]; [21],"22,669 RLU"
same,S/S0,CK-MB [2]; [21],12.7
same,Mean RLU,CK-MB [2]; [22],"84,704 RLU"
same,S/S0,CK-MB [2]; [22],47.4
same,Mean RLU,CK-MB [2]; [23],"370,193 RLU"
same,S/S0,CK-MB [2]; [23],207.0
same,Mean RLU,CK-MB [2]; [24],"2,084,173 RLU"
same,S/S0,CK-MB [2]; [24],1165.6
same,Mean RLU,"CK-MB [2]; pH 8.0 (7.8), S0, CK-MB 600 ng/ml","3,263 RLU"
same,Mean RLU,CK-MB [2]; [25],"15,725 RLU"
same,S/S0,CK-MB [2]; [25],4.8
same,Mean RLU,CK-MB [2]; [26],"42,805 RLU"
same,S/S0,CK-MB [2]; [26],13.1
same,Mean RLU,CK-MB [2]; [27],"150,140 RLU"
same,S/S0,CK-MB [2]; [27],46.0
same,Mean RLU,CK-MB [2]; [28],"788,451 RLU"
same,S/S0,CK-MB [2]; [28],241.7
same,Mean RLU,CK-MB [2]; [29],"4,618,668 RLU"
same,S/S0,CK-MB [2]; [29],1415.6
same,Mean RLU,"CK-MB [2]; pH 9.0 (8.6), S0, CK-MB 600 ng/ml","1,512 RLU"
same,Mean RLU,CK-MB [2]; [30],"9,508 RLU"
same,S/S0,CK-MB [2]; [30],6.3
same,Mean RLU,CK-MB [2]; [31],"28,387 RLU"
same,S/S0,CK-MB [2]; [31],18.8
same,Mean RLU,CK-MB [2]; [32],"74,359 RLU"
same,S/S0,CK-MB [2]; [32],49.2
same,Mean RLU,CK-MB [2]; [33],"561,103 RLU"
same,S/S0,CK-MB [2]; [33],371.1
same,Mean RLU,CK-MB [2]; [34],"3,286,012 RLU"
same,S/S0,CK-MB [2]; [34],2173.3
same,Mean RLU,HRP; HRP 0 ng/ml,263 RLU
same,S/S0,HRP; HRP 0 ng/ml,1.0
same,RLU,HRP; HRP 0 ng/ml,256 RLU and 260 RLU and 272 RLU
same,Mean RLU,HRP; HRP 1 ng/ml,"6,988 RLU"
same,S/S0,HRP; HRP 1 ng/ml,26.6
same,RLU,HRP; HRP 1 ng/ml,"6,712 RLU and 6,844 RLU and 7,408 RLU"
same,Mean RLU,HRP; HRP 10 ng/ml,"309,873 RLU"
same,S/S0,HRP; HRP 10 ng/ml,1178.2
same,RLU,HRP; HRP 10 ng/ml,"310,600 RLU and 278,320 RLU and 340,700 RLU"
same,Mean RLU,HRP; HRP 100 ng/ml,"2,426,677 RLU"
same,S/S0,HRP; HRP 100 ng/ml,9226.9
same,RLU,HRP; HRP 100 ng/ml,"2,306,036 RLU and 2,477,760 RLU and 2,496,236 RLU"
same,Mean RLU,HRP; HRP 250 ng/ml,"2,533,168 RLU"
same,S/S0,HRP; HRP 250 ng/ml,9631.8
same,RLU,HRP; HRP 250 ng/ml,"2,535,712 RLU and 2,523,068 RLU and 2,540,724 RLU"
